Assay results taken from patent publication US12139520B2 (priority 2020, dated 2024).
Bridge positions count the residues as written; N and C are the ends. Square brackets hold non-standard residues; d marks the D form. Peptide text beside a SMILES is read from it. Hyp = O=C(O)[C@@H]1C[C@@H](O)CN1

Key:
hAM1 receptor = hAM1 receptor (Homo sapiens, UniProt O60895+Q16602); assay: cAMP assay for in vitro receptor activation, hAM1-R; format: cell-based; details: cAMP assay, hAM1 receptor; read-out: hAM1R EC50
Summary of the method: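 Receptor activation, read as cAMP, was assessed in thawed cells of a monoclonal hAM1-overexpressing stable line, plated at 8000 cells/well in DPBS supplemented with 0.05% casein and 0.5 mM IBMX.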

[1] = Physical stability of peptide analogues (Thioflavin T fibrillation); format: physicochemical; details: maximum ThT signal normalized between hAMY maximum and buffer background; 40° C., shaking, four days; pH 7 per table title
Summary of the method: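 Peptides in 50 mM sodium acetate pH 4 or 50 mM sodium phosphate pH 7 were preincubated 1 h, mixed with 4 μM ThT, held at 40° C with 700 rpm shaking before each read. Fluorescence (ex 450/em 480 nm) every 10 min for four days; LOESS-smoothed maximum signal normalized in percent between hAMY and buffer.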

hAMY3 receptor = target: T1, hAMY3 receptor (Homo sapiens, UniProt O60896+P30988); assay: cAMP assay for in vitro receptor activation, hAMY3-R; format: cell-based; details: cAMP assay, hAMY3 receptor; read-out: hAMY3R EC50
T1 sequence (P30988 25-474): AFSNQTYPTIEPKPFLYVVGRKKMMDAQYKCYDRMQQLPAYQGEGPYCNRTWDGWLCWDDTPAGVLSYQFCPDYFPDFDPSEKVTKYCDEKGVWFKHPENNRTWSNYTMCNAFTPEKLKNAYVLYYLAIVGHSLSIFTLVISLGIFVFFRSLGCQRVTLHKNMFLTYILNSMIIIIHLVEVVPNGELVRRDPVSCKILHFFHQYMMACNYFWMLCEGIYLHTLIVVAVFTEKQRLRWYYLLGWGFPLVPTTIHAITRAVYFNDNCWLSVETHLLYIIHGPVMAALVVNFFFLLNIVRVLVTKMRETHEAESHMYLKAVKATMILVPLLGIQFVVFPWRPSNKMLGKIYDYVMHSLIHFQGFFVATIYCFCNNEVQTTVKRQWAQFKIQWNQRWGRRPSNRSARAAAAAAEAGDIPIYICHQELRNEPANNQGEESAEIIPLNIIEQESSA
T1 sequence (O60896 24-148 partner): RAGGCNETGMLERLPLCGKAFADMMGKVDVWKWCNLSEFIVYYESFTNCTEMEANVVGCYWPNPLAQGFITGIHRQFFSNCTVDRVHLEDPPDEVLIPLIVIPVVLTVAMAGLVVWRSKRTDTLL
Summary of the method: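 Monoclonal cell line stably overexpressing human AMY3 receptor, 2000 cells/well in DPBS with 0.05% casein and 0.5 mM IBMX. Stimulated 30 min at room temperature with graded compound doses, human amylin as positive control. cAMP accumulation read by TR-FRET after one hour.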

Chain of hAM1 receptor (Q16602 23-461): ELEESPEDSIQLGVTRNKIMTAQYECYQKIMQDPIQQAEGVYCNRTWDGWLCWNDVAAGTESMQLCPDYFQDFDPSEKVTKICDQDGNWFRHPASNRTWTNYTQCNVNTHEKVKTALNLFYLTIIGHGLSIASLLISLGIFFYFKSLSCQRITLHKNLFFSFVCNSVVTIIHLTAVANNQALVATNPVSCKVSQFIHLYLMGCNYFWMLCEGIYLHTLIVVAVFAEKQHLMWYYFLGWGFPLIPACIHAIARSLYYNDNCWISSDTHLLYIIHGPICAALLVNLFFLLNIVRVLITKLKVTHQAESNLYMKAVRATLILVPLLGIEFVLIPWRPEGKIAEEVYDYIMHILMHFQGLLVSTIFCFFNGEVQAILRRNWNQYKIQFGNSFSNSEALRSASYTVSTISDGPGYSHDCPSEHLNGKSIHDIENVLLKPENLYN
Chain of hAM1 receptor (O60895 43-175 partner): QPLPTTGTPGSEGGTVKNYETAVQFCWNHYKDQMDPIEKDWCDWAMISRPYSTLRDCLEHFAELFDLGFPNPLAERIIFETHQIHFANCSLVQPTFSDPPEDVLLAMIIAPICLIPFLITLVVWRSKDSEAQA

Question: What does the source list for `CC[C@H](C)[C@H](NC(=O)[C@H](CCC(N)=O)NC(=O)[C@H](Cc1c[nH]cn1)NC(=O)[C@H](C)NC(=O)[C@H](CC(C)C)NC(=O)[C@H](Cc1c[nH]c2ccccc12)NC(=O)[C@H](CCC(N)=O)NC(=O)[C@@H](NC(=O)[C@@H](NC(=O)[C@@H]1CSSC[C@H](NC(=O)[C@@H](N)CCCCN)C(=O)N[C@@H](CC(N)=O)C(=O)N[C@@H]([C@@H](C)O)C(=O)N[C@@H](C)C(=O)N[C@@H]([C@@H](C)O)C(=O)N1)[C@@H](C)O)C(C)C)C(=O)N[C@@H](Cc1ccc(O)cc1)C(=O)N[C@@H](CCC(N)=O)C(=O)N[C@@H](Cc1ccccc1)C(=O)N[C@H](C(=O)N[C@@H](CC(=O)O)C(=O)N[C@@H](CCCCN)C(=O)N[C@@H](CC(=O)O)C(=O)N[C@@H](CCCCN)C(=O)N[C@@H](CC(=O)O)C(=O)N[C@@H](CC(N)=O)C(=O)N[C@H](C(=O)N1CCC[C@H]1C(=O)N1CCC[C@H]1C(=O)N[C@H](C(=O)N[C@@H](CC(N)=O)C(=O)N[C@H](C(=O)NCC(=O)N[C@@H](CO)C(=O)N[C@@H](CC(N)=O)C(=O)NCC(=O)N1C[C@H](O)C[C@H]1C(N)=O)C(C)C)[C@@H](C)O)C(C)C)[C@@H](C)O` [compound 318] (H-KCNTATCTVQWLAHQIYQFTDKDKDNVPPTNVGSNG[Hyp]-NH2; disulfide 2-7; N-terminus assumed)?
Answer: EC50 (hAM1 receptor): > 5 µM; Max ThT signal (%) [1]: 14.900%; EC50 (hAMY3 receptor): 0.009 nM

Question: With `CC[C@H](C)[C@H](NC(=O)[C@H](CCC(N)=O)NC(=O)[C@H](Cc1c[nH]cn1)NC(=O)[C@H](C)NC(=O)[C@H](CC(C)C)NC(=O)[C@H](Cc1c[nH]c2ccccc12)NC(=O)[C@H](CCC(N)=O)NC(=O)[C@@H](NC(=O)[C@@H](NC(=O)[C@@H]1CSSC[C@H](NC(=O)[C@@H](N)CCCCN)C(=O)N[C@@H](CC(N)=O)C(=O)N[C@@H]([C@@H](C)O)C(=O)N[C@@H](C)C(=O)N[C@@H]([C@@H](C)O)C(=O)N1)[C@@H](C)O)C(C)C)C(=O)N[C@@H](Cc1ccc(O)cc1)C(=O)N[C@@H](CCC(N)=O)C(=O)N[C@@H](Cc1ccccc1)C(=O)N[C@H](C(=O)N[C@@H](CC(=O)O)C(=O)N[C@@H](CCCCN)C(=O)N[C@@H](CC(=O)O)C(=O)N[C@@H](CCCCN)C(=O)N[C@@H](CC(=O)O)C(=O)N[C@@H](CC(N)=O)C(=O)N[C@H](C(=O)N[C@@H](C)C(=O)N1CCC[C@H]1C(=O)N[C@H](C(=O)N[C@@H](CC(N)=O)C(=O)N[C@H](C(=O)NCC(=O)N[C@@H](CO)C(=O)N[C@@H](CC(N)=O)C(=O)NCC(=O)N1C[C@H](O)C[C@H]1C(N)=O)C(C)C)[C@@H](C)O)C(C)C)[C@@H](C)O` [compound 319] (H-KCNTATCTVQWLAHQIYQFTDKDKDNVAPTNVGSNG[Hyp]-NH2; disulfide 2-7; N-terminus assumed) as the compound, how does the EC50 (hAM1 receptor) read?
Answer: > 5 µM

Question: What about the “Max ThT signal (%)” value [1] of the same compound?
Answer: 3.900%

Question: And the EC50 (hAMY3 receptor)?
Answer: 0.018 nM

Question: Which EC50 (hAM1 receptor) does the source give for `CC[C@H](C)[C@H](NC(=O)[C@H](CCC(N)=O)NC(=O)[C@H](Cc1c[nH]cn1)NC(=O)[C@H](C)NC(=O)[C@H](CC(C)C)NC(=O)[C@H](Cc1c[nH]c2ccccc12)NC(=O)[C@H](CCC(N)=O)NC(=O)[C@@H](NC(=O)[C@@H](NC(=O)[C@@H]1CSSC[C@H](NC(=O)[C@@H](N)CCCCN)C(=O)N[C@@H](CC(N)=O)C(=O)N[C@@H]([C@@H](C)O)C(=O)N[C@@H](C)C(=O)N[C@@H]([C@@H](C)O)C(=O)N1)[C@@H](C)O)C(C)C)C(=O)N[C@@H](Cc1ccc(O)cc1)C(=O)N[C@@H](CCC(N)=O)C(=O)N[C@@H](Cc1ccccc1)C(=O)N[C@H](C(=O)N[C@@H](CC(=O)O)C(=O)N[C@@H](CCCCN)C(=O)N[C@@H](C)C(=O)N[C@@H](CCCCN)C(=O)N[C@@H](CC(=O)O)C(=O)N[C@@H](CC(N)=O)C(=O)N[C@H](C(=O)N[C@@H](C)C(=O)N1CCC[C@H]1C(=O)N1CCC[C@H]1C(=O)N[C@H](C(=O)N[C@@H](CC(N)=O)C(=O)N[C@H](C(=O)NCC(=O)N[C@@H](CO)C(=O)N[C@@H](CC(N)=O)C(=O)NCC(=O)N1C[C@H](O)C[C@H]1C(N)=O)C(C)C)[C@@H](C)O)C(C)C)[C@@H](C)O` [compound 320] (H-KCNTATCTVQWLAHQIYQFTDKAKDNVAPPTNVGSNG[Hyp]-NH2; disulfide 2-7; N-terminus assumed) here?
Answer: > 5 µM

Question: What about the “Max ThT signal (%)” value [1] of the same compound?
Answer: 11.100%

Question: What about the EC50 (hAMY3 receptor) of the same compound?
Answer: 0.009 nM

Question: With `CC[C@H](C)[C@H](NC(=O)[C@H](CCC(N)=O)NC(=O)[C@H](Cc1c[nH]cn1)NC(=O)[C@H](C)NC(=O)[C@H](CC(C)C)NC(=O)[C@H](Cc1c[nH]c2ccccc12)NC(=O)[C@H](CCC(N)=O)NC(=O)[C@@H](NC(=O)[C@@H](NC(=O)[C@@H]1CSSC[C@H](NC(=O)CN)C(=O)N[C@@H](CCCNC(=N)N)C(=O)N[C@@H]([C@@H](C)O)C(=O)NCC(=O)N[C@@H]([C@@H](C)O)C(=O)N1)[C@@H](C)O)C(C)C)C(=O)N[C@@H](Cc1ccc(O)cc1)C(=O)N[C@@H](CCC(N)=O)C(=O)N[C@@H](Cc1ccccc1)C(=O)N[C@H](C(=O)N[C@@H](CC(=O)O)C(=O)N[C@@H](CCCCN)C(=O)N[C@@H](CC(=O)O)C(=O)N[C@@H](CCCCN)C(=O)N[C@@H](CC(=O)O)C(=O)N[C@@H](CC(N)=O)C(=O)N[C@H](C(=O)N[C@@H](C)C(=O)N1CCC[C@H]1C(=O)N[C@@H](CCCNC(=N)N)C(=O)N[C@H](C(=O)N[C@@H](CC(N)=O)C(=O)N[C@H](C(=O)NCC(=O)N1CCC[C@H]1C(=O)N[C@@H](CCC(N)=O)C(=O)NCC(=O)N1C[C@H](O)C[C@H]1C(N)=O)C(C)C)[C@@H](C)O)C(C)C)[C@@H](C)O` [compound 323] (H-GCRTGTCTVQWLAHQIYQFTDKDKDNVAPRTNVGPQG[Hyp]-NH2; disulfide 2-7; N-terminus assumed) as the compound, how does the EC50 (hAM1 receptor) read?
Answer: > 5 µM

Question: What about the “Max ThT signal (%)” value [1] of the same compound?
Answer: 27.500%

Question: And the EC50 (hAMY3 receptor)?
Answer: 0.014 nM

Question: What does the source list for `CC[C@H](C)[C@H](NC(=O)[C@H](CCC(N)=O)NC(=O)[C@H](Cc1c[nH]cn1)NC(=O)[C@H](C)NC(=O)[C@H](CC(C)C)NC(=O)[C@H](Cc1c[nH]c2ccccc12)NC(=O)[C@H](CCC(N)=O)NC(=O)[C@@H](NC(=O)[C@@H](NC(=O)[C@@H]1CSSC[C@H](NC(=O)[C@@H](N)CCCCN)C(=O)N[C@@H](CC(N)=O)C(=O)N[C@@H]([C@@H](C)O)C(=O)N[C@@H](C)C(=O)N[C@@H]([C@@H](C)O)C(=O)N1)[C@@H](C)O)C(C)C)C(=O)N[C@@H](Cc1ccc(O)cc1)C(=O)N[C@@H](CCC(N)=O)C(=O)N[C@@H](Cc1ccccc1)C(=O)N[C@H](C(=O)N[C@@H](CC(=O)O)C(=O)N[C@@H](CCCCN)C(=O)N[C@@H](CC(=O)O)C(=O)N[C@@H](CCCCN)C(=O)N[C@@H](CC(=O)O)C(=O)N[C@@H](C)C(=O)N[C@H](C(=O)N[C@@H](C)C(=O)N1CCC[C@H]1C(=O)N1CCC[C@H]1C(=O)N[C@H](C(=O)N[C@@H](CC(N)=O)C(=O)N[C@H](C(=O)NCC(=O)N[C@@H](CO)C(=O)N[C@@H](CC(N)=O)C(=O)NCC(=O)N1C[C@H](O)C[C@H]1C(N)=O)C(C)C)[C@@H](C)O)C(C)C)[C@@H](C)O` [compound 324] (H-KCNTATCTVQWLAHQIYQFTDKDKDAVAPPTNVGSNG[Hyp]-NH2; disulfide 2-7; N-terminus assumed)?
Answer: EC50 (hAM1 receptor): > 5 µM; Max ThT signal (%) [1]: 11.850%; EC50 (hAMY3 receptor): 0.028 nM

Question: With `CC[C@H](C)[C@H](NC(=O)[C@H](CCC(N)=O)NC(=O)[C@H](Cc1c[nH]cn1)NC(=O)[C@H](C)NC(=O)[C@H](CC(C)C)NC(=O)[C@H](Cc1c[nH]c2ccccc12)NC(=O)[C@H](CCC(N)=O)NC(=O)[C@@H](NC(=O)[C@@H](NC(=O)[C@@H]1CSSC[C@H](NC(=O)[C@@H](N)CCCCN)C(=O)N[C@@H](CC(N)=O)C(=O)N[C@@H]([C@@H](C)O)C(=O)N[C@@H](C)C(=O)N[C@@H]([C@@H](C)O)C(=O)N1)[C@@H](C)O)C(C)C)C(=O)N[C@@H](Cc1ccc(O)cc1)C(=O)N[C@@H](CCC(N)=O)C(=O)N[C@@H](Cc1ccccc1)C(=O)N[C@H](C(=O)N[C@@H](CC(=O)O)C(=O)N[C@@H](CCCCN)C(=O)N[C@@H](CC(=O)O)C(=O)N[C@@H](CCCCN)C(=O)N[C@@H](CC(=O)O)C(=O)N[C@@H](CC(N)=O)C(=O)N[C@H](C(=O)N[C@@H](C)C(=O)N[C@@H](C)C(=O)N1CCC[C@H]1C(=O)N[C@H](C(=O)N[C@@H](CC(N)=O)C(=O)N[C@H](C(=O)NCC(=O)N[C@@H](CO)C(=O)N[C@@H](CC(N)=O)C(=O)NCC(=O)N1C[C@H](O)C[C@H]1C(N)=O)C(C)C)[C@@H](C)O)C(C)C)[C@@H](C)O` [compound 325] (H-KCNTATCTVQWLAHQIYQFTDKDKDNVAAPTNVGSNG[Hyp]-NH2; disulfide 2-7; N-terminus assumed) as the compound, how does the EC50 (hAM1 receptor) read?
Answer: > 5 µM

Question: What about the “Max ThT signal (%)” value [1] of the same compound?
Answer: 10.100%

Question: And the EC50 (hAMY3 receptor)?
Answer: 0.025 nM
